Results reported in patent publication US6525040B1, “Cyclic organoselenium compounds, their preparation and their uses” (Oxis Isle of Man, Limited, priority 1996, dated 2003).

What was measured:
[1] = test system: TNF-α-induced P-selectin expression by endothelial cells (HUVEC); assay: Inhibition of TNF-α-induced P-selectin expression by endothelial cells (cell ELISA); type: cell-based; conditions: compound 10 μM; TNF-α 1 ng/ml; 3 h 30 min incubation; human endothelial cells
Method: (§1) Human endothelial cells are grown under the same conditions as those described in Example 6.
(§2) When the cells are close to confluence, they are incubated for one hour in the presence or in the absence of one of the following compounds: BXT-51097 or BXT-51103. Each one of these compounds is incorporated at 10 μM in the culture medium containing 2% foetal calf serum, everything else being equal. After the removal of the culture medium, the cells are incubated in the presence or in the absence (control) of TNF-α, at 1 ng/ml, in the same culture medium as before. In the case of cells pre-treated with a compound, the medium further contains the same compound at 10 μM. After three hours and thirty minutes of incubation, the cells are washed with PBS buffer and they are fixed with 2% formaldehyde in the same buffer. The P- and E-selectin expressions on the cells are then measured by an ELISA determination by successively incubating the cells in the presence of a mouse monoclonal antibody, anti-P-selectin and anti-E-selectin respectively, and a rabbit anti-mouse anti-antibody labelled with alkaline phosphatase. The quantification is carried out upon the addition of para-nitrophenyl phosphate whose hydrolysis is followed at 405 nm.

[2] = test system: TNF-α-induced E-selectin expression by endothelial cells (HUVEC); assay: Inhibition of TNF-α-induced E-selectin expression by endothelial cells (cell ELISA); type: cell-based; conditions: compound 10 μM; TNF-α 1 ng/ml; 3 h 30 min incubation; human endothelial cells
Method: as §1, §2

[3] = test system: TNF-α-induced interleukin 8 release by endothelial cells (HUVEC); assay: Inhibition of the TNF-α-induced release of interleukin 8 by endothelial cells (ELISA); type: cell-based; conditions: compound 10 μM, TNF-α 1 ng/ml, 3 h 30 min incubation, human endothelial cells, read-out: Inhibition of TNF-α-induced IL-8 production in the culture medium
Method: Human endothelial cells are grown at 37° C. in multi-well plates under a water-saturated atmosphere constituted of a gaseous mixture of 95% air and 5% CO2. Their culture medium is constituted by a medium M 199 pH=7.4 containing 20% foetal calf serum, 2 mM L-glutamine, 100 U/ml penicillin, 100 μg/ml streptomycin and 1% by volume of a medium supplement containing heparin and a growth factor for these cells.
When the cells are close to confluence, they are incubated for one hour in the presence or in the absence of one of the following compounds: BXT-51097 or BXT-51103. Each one of these compounds is incorporated at 10 μM in the culture medium containing 2% foetal calf serum, everything else being equal. After removal of the culture medium, the cells are incubated in the presence or in the absence (control) of TNF-α, at 1 ng/ml, in the same culture medium as before. In the case of cells pre-treated with a compound of the invention, the medium further contains the same compound at 10 μM. After three hours and thirty minutes of incubation, the interleukin 8 (IL-8) released into the culture medium is determined by ELISA.

[4] = Glutathione peroxidase activity (NADPH-coupled, GSH/glutathione disulphide reductase); type: biochemical; conditions: compound 20 μM, pH = 7.3, 37° C., [GSH] = 2 mM; for Glutathione peroxidase activity, H2O2: substrate H2O2; for Glutathione peroxidase activity, t-BuOOH: substrate t-BuOOH
Method: The glutathione peroxidase activity is determined by using a 50 mM HEPES buffer, pH=7.3 (at 37° C.), containing 0.2 mM DTPA, 0.144 mM NADPH, 2.2 mM reduced glutathione (GSH) and 1.1 U/ml glutathione disulphide reductase. This buffer further contains 110 U/ml catalase when hydrogen peroxide is not used as substrate.
To 1.5 ml of the buffer described above, are added 100 μl of an ethanolic stock solution of the compound tested or 100 μl of absolute ethanol (blank). Each compound is tested at a final concentration of 20 μM. The reaction medium is equilibrated for 2 minutes at 37° C. Then 50 μl of 6.6 mM tert-butyl hydroperoxide (t-BuOOH) in ultrapure water, or 3.3 mM hydrogen peroxide (H2O2) in ultrapure water are added. The glutathione peroxidase activity is determined at 37° C. by measuring the decrease of absorbance at 340 nm for 5 minutes. Said activity or initial enzymatic rate is proportional to the slope of the variation of absorbance with time.
The catalytic activity of oxygen reduction of the compounds tested corresponds to the rate of consum.p.ion of NADPH in the absence of hydroperoxide.
They are expressed in nmoles of hydroperoxide reduced per minute.

[5] = even in the presence of an excess of glutathione GSH; cited from earlier work

| Structure (SMILES) | Inhibition of TNF-α-induced P-selectin expression [1] | Inhibition of TNF-α-induced E-selectin expression [2] | inhibition at 10 µM [3] [%] | Glutathione peroxidase activity, H2O2 [4] | Glutathione peroxidase activity, t-BuOOH [4] | Solubility in water [5] |
| --- | --- | --- | --- | --- | --- | --- |
| CC1(C)CN[Se]c2sccc21 [BXT-51097, 4,4-Dimethyl-thieno-[3,2-e]-isoselenazine] | totally inhibited | totally inhibited | ≥ 85 | 39.8 nmoles of hydroperoxide reduced/min | 11.4 nmoles of hydroperoxide reduced/min | – |
| CC1(C)CN[Se](=O)c2sccc21 (stereo not drawn) [BXT-51100, 4,4-Dimethyl-thieno-[3,2-e]-isoselenazine-1-oxide] | – | – | – | 37.1 nmoles of hydroperoxide reduced/min | 10.1 nmoles of hydroperoxide reduced/min | – |
| CC1(C)CN[Se](=O)c2ccsc21 (stereo not drawn) [BXT-51105, 4,4-Dimethyl-thieno-[23-e]-isoselenazine-1-oxide] | – | – | – | 35.7 nmoles of hydroperoxide reduced/min | 13.9 nmoles of hydroperoxide reduced/min | – |
| CC1(C)CN[Se]c2ccsc21 [BXT-51103, 4,4-Dimethyl-thieno-[2,3-e]-isoselenazine] | totally inhibited | totally inhibited | ≥ 85 | 34.9 nmoles of hydroperoxide reduced/min | 15.5 nmoles of hydroperoxide reduced/min | – |
| O=c1c2ccccc2[se]n1-c1ccccc1 [ebselen, 2-phenyl-1,2-benzisoselenazolin-3-one] | – | – | – | – | – | very little soluble in water |
